{"source": "paper PMC5736695", "about": "“Lectin activity of the pneumococcal pilin proteins” (Scientific Reports, 2017)", "assay_type_in_all_cases": "binding", "key": {"RrgC T4": {"target": "T1, RrgC T4 (Streptococcus pneumoniae, UniProt A0A0H2UNM0)", "T1 construct": "gene SP_0464", "T1 sequence (A0A0H2UNM0 entry or part of it)": "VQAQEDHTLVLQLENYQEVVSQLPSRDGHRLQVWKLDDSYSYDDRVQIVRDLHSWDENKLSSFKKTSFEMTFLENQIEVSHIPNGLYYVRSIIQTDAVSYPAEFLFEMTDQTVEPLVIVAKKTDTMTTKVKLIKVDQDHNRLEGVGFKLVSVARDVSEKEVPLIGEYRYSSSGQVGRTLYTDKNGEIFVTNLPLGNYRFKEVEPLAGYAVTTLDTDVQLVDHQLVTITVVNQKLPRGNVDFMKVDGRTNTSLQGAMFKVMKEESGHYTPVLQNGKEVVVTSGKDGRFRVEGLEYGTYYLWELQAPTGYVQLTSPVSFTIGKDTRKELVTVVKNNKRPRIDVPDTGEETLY", "assay": "glycan array, fluorescence", "conditions": "glycan printed on slide via spacer; PBS, 1 mM MgCl2, 1 mM CaCl2; protein pre-complexed with anti-His and labelled secondary antibodies", "from_the_text": "glycan array, fluorescence on RrgC T4"}, "RrgA TIGR4 (RrgA T4)": {"target": "T2, RrgA TIGR4 (RrgA T4) (Streptococcus pneumoniae, UniProt A0A0H2UNT6)", "T2 construct": "gene SP_0462", "T2 sequence (A0A0H2UNT6 entry or part of it)": "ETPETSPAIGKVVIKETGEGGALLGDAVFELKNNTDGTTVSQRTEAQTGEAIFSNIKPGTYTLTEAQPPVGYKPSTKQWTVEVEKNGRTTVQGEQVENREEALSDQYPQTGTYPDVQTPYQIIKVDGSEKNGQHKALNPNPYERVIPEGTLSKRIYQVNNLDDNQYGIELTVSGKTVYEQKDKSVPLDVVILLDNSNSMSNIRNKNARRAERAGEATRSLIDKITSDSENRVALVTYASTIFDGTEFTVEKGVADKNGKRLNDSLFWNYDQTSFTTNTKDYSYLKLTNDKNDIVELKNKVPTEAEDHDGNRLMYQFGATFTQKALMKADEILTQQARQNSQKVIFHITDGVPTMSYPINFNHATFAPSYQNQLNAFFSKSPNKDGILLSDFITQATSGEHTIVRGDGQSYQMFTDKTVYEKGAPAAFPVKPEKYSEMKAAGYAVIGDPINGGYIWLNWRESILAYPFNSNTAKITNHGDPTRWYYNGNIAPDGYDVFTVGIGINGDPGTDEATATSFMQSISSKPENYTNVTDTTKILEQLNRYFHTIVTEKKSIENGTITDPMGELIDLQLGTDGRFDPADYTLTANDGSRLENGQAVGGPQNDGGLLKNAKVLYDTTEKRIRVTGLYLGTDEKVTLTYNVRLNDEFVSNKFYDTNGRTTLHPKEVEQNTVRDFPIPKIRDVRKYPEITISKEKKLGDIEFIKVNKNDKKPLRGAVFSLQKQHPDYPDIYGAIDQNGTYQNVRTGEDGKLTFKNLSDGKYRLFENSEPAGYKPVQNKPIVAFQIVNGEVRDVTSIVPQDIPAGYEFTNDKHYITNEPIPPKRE", "assay": "SPR (Biacore T100)", "from_the_text": "SPR (Biacore T100) on RrgA TIGR4 (RrgA T4)"}, "RrgA SPEC6B": {"target": "RrgA SPEC6B (Streptococcus pneumoniae, UniProt A7KT31)", "sequence (A7KT31 entry or part of it)": "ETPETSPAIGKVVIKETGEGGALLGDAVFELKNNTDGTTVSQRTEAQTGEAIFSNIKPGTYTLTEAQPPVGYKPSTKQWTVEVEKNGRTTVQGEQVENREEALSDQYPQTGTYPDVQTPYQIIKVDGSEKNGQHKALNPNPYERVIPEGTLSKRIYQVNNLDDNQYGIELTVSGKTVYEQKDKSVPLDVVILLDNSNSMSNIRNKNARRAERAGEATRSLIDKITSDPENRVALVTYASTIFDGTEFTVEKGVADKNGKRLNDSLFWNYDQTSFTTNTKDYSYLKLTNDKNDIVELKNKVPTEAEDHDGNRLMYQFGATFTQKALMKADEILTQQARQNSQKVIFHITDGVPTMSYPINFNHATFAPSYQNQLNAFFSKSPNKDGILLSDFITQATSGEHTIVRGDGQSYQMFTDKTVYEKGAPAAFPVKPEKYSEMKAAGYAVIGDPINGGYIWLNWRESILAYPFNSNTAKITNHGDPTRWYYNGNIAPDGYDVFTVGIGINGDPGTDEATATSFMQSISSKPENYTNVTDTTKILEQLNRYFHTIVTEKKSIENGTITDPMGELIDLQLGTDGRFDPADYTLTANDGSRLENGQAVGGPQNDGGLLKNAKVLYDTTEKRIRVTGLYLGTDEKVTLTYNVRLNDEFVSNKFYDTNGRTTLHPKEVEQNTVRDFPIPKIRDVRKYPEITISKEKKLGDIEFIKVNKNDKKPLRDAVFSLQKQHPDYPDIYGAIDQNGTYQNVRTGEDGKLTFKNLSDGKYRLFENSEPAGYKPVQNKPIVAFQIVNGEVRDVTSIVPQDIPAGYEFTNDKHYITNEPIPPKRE", "assay": "SPR (Biacore T100)", "conditions": "read-out: RrgA SPEC6B; free oligosaccharide; protein immobilised on CM5 chip; glycans 160 nM to 100 µM", "from_the_text": "SPR (Biacore T100) on RrgA SPEC6B"}, "RrgB T4": {"target": "T3, RrgB T4 (Streptococcus pneumoniae, UniProt A0A0H2UNM7)", "T3 construct": "gene SP_0463", "T3 sequence (A0A0H2UNM7 entry or part of it)": "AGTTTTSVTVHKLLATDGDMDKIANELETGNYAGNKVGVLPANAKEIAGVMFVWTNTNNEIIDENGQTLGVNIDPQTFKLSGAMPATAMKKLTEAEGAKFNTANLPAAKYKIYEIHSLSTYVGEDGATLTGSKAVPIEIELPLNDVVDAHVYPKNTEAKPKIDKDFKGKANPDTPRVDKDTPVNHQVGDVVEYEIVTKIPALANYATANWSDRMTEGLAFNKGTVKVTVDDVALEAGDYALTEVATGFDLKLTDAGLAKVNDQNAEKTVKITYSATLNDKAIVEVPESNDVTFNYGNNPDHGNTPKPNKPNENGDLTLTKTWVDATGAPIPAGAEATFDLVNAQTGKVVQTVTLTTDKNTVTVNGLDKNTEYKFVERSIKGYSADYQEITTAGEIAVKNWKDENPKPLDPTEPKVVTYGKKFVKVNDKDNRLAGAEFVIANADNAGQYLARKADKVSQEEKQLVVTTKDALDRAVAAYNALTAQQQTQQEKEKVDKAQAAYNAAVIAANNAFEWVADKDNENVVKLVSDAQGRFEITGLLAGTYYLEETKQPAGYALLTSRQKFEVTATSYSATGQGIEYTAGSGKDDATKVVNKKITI", "assay": "glycan array, fluorescence", "conditions": "glycan printed on slide via spacer; PBS, 1 mM MgCl2, 1 mM CaCl2; protein pre-complexed with anti-His and labelled secondary antibodies", "from_the_text": "glycan array, fluorescence on RrgB T4"}, "[1]": {"conditions": "read-out: RrgA TIGR4, free oligosaccharide, protein immobilised on CM5 chip, glycans 160 nM to 100 µM"}}, "note": "Read-outs that look alike come from different tables or passages of the source.", "data": [{"compound": "Fucα1-2Galβ1-3(Fucα1-4)GlcNAcβ1-3Galβ1-4Glcβ-sp4 [compound 496]", "values": [{"measurement": "RrgC T4", "setting": "RrgC T4", "value": "1192 ± 322"}]}, {"compound": "Galβ1-6Galβ-sp4 [compound 100]", "values": [{"measurement": "RrgC T4", "setting": "RrgC T4", "value": "3443.5 ± 523"}]}, {"compound": "CC(=O)N[C@H]1C(O)O[C@H](CO)[C@@H](O[C@@H]2O[C@H](CO)[C@H](O)[C@H](O)[C@H]2O)[C@@H]1O[C@@H]1O[C@@H](C)[C@@H](O)[C@@H](O)[C@@H]1O", "note": "(stereo partly shown) [Lewis X]", "values": [{"measurement": "Kd", "setting": "RrgA TIGR4 (RrgA T4)", "value": "434 ± 118", "unit": "nM"}, {"measurement": "Kd", "setting": "RrgA SPEC6B", "value": "363 ± 107", "unit": "nM"}]}, {"compound": "CC(=O)N[C@H]1[C@H](O[C@H]2[C@@H](O)[C@@H](CO)O[C@@H](O[C@H]3[C@H](O)[C@@H](O)C(O)O[C@@H]3CO)[C@@H]2O)O[C@H](CO)[C@@H](O)[C@@H]1O[C@@H]1O[C@H](CO)[C@H](O)[C@H](O)[C@H]1O", "note": "(stereo partly shown) [1G, Lacto-N-tetraose]", "values": [{"measurement": "Kd", "setting": "RrgA TIGR4 (RrgA T4); [1]", "value": "1030 ± 50", "unit": "nM"}, {"measurement": "Kd", "setting": "RrgA SPEC6B", "value": "869 ± 454", "unit": "nM"}]}, {"compound": "CC(=O)N[C@H]1C(O)O[C@H](CO)[C@H](O)[C@@H]1O[C@@H]1O[C@H](CO)[C@H](O)[C@H](O)[C@H]1O[C@@H]1O[C@@H](C)[C@@H](O)[C@@H](O)[C@@H]1O", "note": "(stereo partly shown) [Blood group H type 3/4]", "values": [{"measurement": "Kd", "setting": "RrgA TIGR4 (RrgA T4); read-out: RrgA TIGR4, free oligosaccharide, protein immobilised on CM5 chip, glycans 160 nM to 100 µM (value below tested range)", "value": "89.4 ± 16", "unit": "nM"}, {"measurement": "Kd", "setting": "RrgA SPEC6B", "value": "358 ± 51", "unit": "nM"}]}, {"compound": "CC(=O)N[C@H]1[C@@H](O[C@H]2[C@@H](O)[C@@H](CO)O[C@@H](O[C@H]3[C@@H](O)[C@@H](CO)OC(O)[C@@H]3NC(C)=O)[C@@H]2O[C@@H]2O[C@@H](C)[C@@H](O)[C@@H](O)[C@@H]2O)O[C@H](CO)[C@H](O)[C@@H]1O", "note": "(stereo partly shown) [Blood group A type3/4]", "values": [{"measurement": "Kd", "setting": "RrgA TIGR4 (RrgA T4); [1]", "value": "871 ± 286", "unit": "nM"}, {"measurement": "Kd", "setting": "RrgA SPEC6B", "value": "644 ± 157", "unit": "nM"}]}, {"compound": "Manα1-3Manβ-sp4 [compound 120]", "values": [{"measurement": "RrgB T4", "setting": "RrgB T4", "value": "1332 ± 275"}]}, {"compound": "CC(=O)N[C@H]1[C@@H](O[C@H]2[C@@H](O)[C@@H](CO)OC(O)[C@@H]2O[C@@H]2O[C@@H](C)[C@@H](O)[C@@H](O)[C@@H]2O)O[C@H](CO)[C@H](O)[C@@H]1O", "note": "(stereo partly shown) [7K, Blood group A tri]", "values": [{"measurement": "Kd", "setting": "RrgA TIGR4 (RrgA T4); [1]", "value": "916 ± 66.4", "unit": "nM"}, {"measurement": "Kd", "setting": "RrgA SPEC6B", "value": "1400 ± 290", "unit": "nM"}]}, {"compound": "Galα1-3Galβ1-4GlcNAcβ-sp3 [compound 222]", "values": [{"measurement": "RrgC T4", "setting": "RrgC T4", "value": "3108 ± 641"}]}, {"compound": "OC[C@H]1O[C@H](O[C@H]2[C@H](O)[C@@H](O)C(O)O[C@@H]2CO)[C@H](O)[C@@H](O)[C@@H]1O", "note": "(stereo partly shown) [maltobiose]", "values": [{"measurement": "Kd", "setting": "RrgA TIGR4 (RrgA T4); [1]", "value": "1160 ± 90", "unit": "nM"}, {"measurement": "Kd", "setting": "RrgA SPEC6B", "value": "964 ± 226", "unit": "nM"}]}, {"compound": "OC[C@H]1O[C@@H](O[C@H]2[C@H](O)[C@@H](O)C(O)O[C@@H]2CO)[C@H](O)[C@@H](O)[C@@H]1O", "note": "(stereo partly shown) [cellobiose]", "values": [{"measurement": "Kd", "setting": "RrgA SPEC6B", "value": "583 ± 155", "unit": "nM"}]}, {"compound": "CC(=O)N[C@H]1[C@H](O[C@H]2[C@H](O)[C@@H](NC(C)=O)C(O)O[C@@H]2CO)O[C@H](CO)[C@@H](O)[C@@H]1O", "note": "(stereo partly shown) [chitobiose]", "values": [{"measurement": "Kd", "setting": "RrgA TIGR4 (RrgA T4); [1]", "value": "409 ± 160", "unit": "nM"}, {"measurement": "Kd", "setting": "RrgA SPEC6B", "value": "426 ± 144", "unit": "nM"}]}]}
